Data published in PubChem BioAssay AID1963851 (Molecular Pharmacology Branch, DTP, NCI, 2024).

System: 188146-221-R-J1-PDC complex spheroid viability
Test: Anticancer human tumor 188146-221-R-J1-PDC patient-derived colon adenocarcinoma cell line growth inhibition [POLQ]
Settings: for IC50: curve of first compound; for viability, T/C: stronger effect = lower value
Method in brief: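 Patient-derived tumour cells were co-cultured with HUVEC and mesenchymal stem cells as multicellular spheroids at 37 °C. They were treated with POLQ inhibitors (novobiocin, ART-558, RP6685) alone or combined with other agents. Top concentrations were at or near clinical Cmax (otherwise 10 microM; SN-38 at 1 microM), decreasing in half-log steps.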

[1] = second compound 0.0316 µM, first compound 0.0316 µM
[2] = second compound 0.0316 µM, first compound 0.1 µM
[3] = second compound 0.0316 µM, first compound 0.316 µM
[4] = second compound 0.0316 µM, first compound 1 µM
[5] = second compound 0.0316 µM, first compound 3.16 µM
[6] = second compound 0.0316 µM, first compound 10 µM
[7] = second compound 0.1 µM, first compound 0.0316 µM
[8] = second compound 0.1 µM, first compound 0.1 µM
[9] = second compound 0.1 µM, first compound 0.316 µM
[10] = second compound 0.1 µM, first compound 1 µM
[11] = second compound 0.1 µM, first compound 3.16 µM
[12] = second compound 0.1 µM, first compound 10 µM
[13] = second compound 0.316 µM, first compound 0.0316 µM
[14] = second compound 0.316 µM, first compound 0.1 µM
[15] = second compound 0.316 µM, first compound 0.316 µM
[16] = second compound 0.316 µM, first compound 1 µM
[17] = second compound 0.316 µM, first compound 3.16 µM
[18] = second compound 0.316 µM, first compound 10 µM
[19] = second compound 1 µM, first compound 0.0316 µM
[20] = second compound 1 µM, first compound 0.1 µM
[21] = second compound 1 µM, first compound 0.316 µM
[22] = second compound 1 µM, first compound 1 µM
[23] = second compound 1 µM, first compound 3.16 µM
[24] = second compound 1 µM, first compound 10 µM
[25] = second compound 3.16 µM, first compound 0.0316 µM
[26] = second compound 3.16 µM, first compound 0.1 µM
[27] = second compound 3.16 µM, first compound 0.316 µM
[28] = second compound 3.16 µM, first compound 1 µM
[29] = second compound 3.16 µM, first compound 3.16 µM
[30] = second compound 3.16 µM, first compound 10 µM
[31] = second compound 10 µM, first compound 0.0316 µM
[32] = second compound 10 µM, first compound 0.1 µM
[33] = second compound 10 µM, first compound 0.316 µM
[34] = second compound 10 µM, first compound 1 µM
[35] = second compound 10 µM, first compound 3.16 µM
[36] = second compound 10 µM, first compound 10 µM
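Note: spheroids exposed to compounds for seven days.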
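Throughout, for viability, T/C: 100% = DMSO vehicle control viability.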

O=C(Nc1ccc(O)c(NS(=O)(=O)c2ccc(F)cc2)c1)c1ccc(-c2ccccc2)cc1 + Cc1cccc(N(C)C(=O)C2C(O)CCN2c2nc(C)cc(C(F)(F)F)c2C#N)c1 was tested, and the IC50 (second compound 0.0316 µM) was greater than 10000 nM, the IC50 (second compound 0.1 µM) was greater than 10000 nM and the IC50 (second compound 0.316 µM) was greater than 10000 nM. The IC50 (second compound 1 µM) was greater than 10000 nM, the IC50 (second compound 3.16 µM) was greater than 10000 nM and the IC50 (second compound 10 µM) was greater than 10000 nM. The viability, T/C [1] was 100%, the viability, T/C [2] was 103% and the viability, T/C [3] was 109%. For the same compound, the viability, T/C [4] was 107%, the viability, T/C [5] was 100% and the viability, T/C [6] was 50.2%. The viability, T/C [7] was 103%, the viability, T/C [8] was 92.1% and the viability, T/C [9] was 93.5%. For the same compound, the viability, T/C [10] was 87.8%, the viability, T/C [11] was 106% and the viability, T/C [12] was 60.6%. For the same compound, the viability, T/C [13] was 102%, the viability, T/C [14] was 98.1% and the viability, T/C [15] was 103%. For the same compound, the viability, T/C [16] was 80.2%, the viability, T/C [17] was 83.2% and the viability, T/C [18] was 75.2%. It also gave a viability, T/C [19] of 98.5%, a viability, T/C [20] of 90.9% and a viability, T/C [21] of 92.6%. For the same compound, the viability, T/C [22] was 86.9%, the viability, T/C [23] was 84.1% and the viability, T/C [24] was 65.2%. For the same compound, the viability, T/C [25] was 96%, the viability, T/C [26] was 92.3% and the viability, T/C [27] was 89.5%. For the same compound, the viability, T/C [28] was 99%, the viability, T/C [29] was 90.2% and the viability, T/C [30] was 52.1%. It also gave a viability, T/C [31] of 92.3%, a viability, T/C [32] of 91.3% and a viability, T/C [33] of 101%. For the same compound, the viability, T/C [34] was 87.3%, the viability, T/C [35] was 79.6% and the viability, T/C [36] was 51.2%.
Work on CC(=O)O[C@H]1C(=O)[C@@]2(C)[C@H]([C@H](OC(=O)c3ccccc3)[C@]3(O)C[C@H](OC(=O)[C@H](O)[C@@H](NC(=O)c4ccccc4)c4ccccc4)C(C)=C1C3(C)C)[C@]1(OC(C)=O)CO[C@@H]1C[C@@H]2O + Nc1ccc(C#CCN(C(=O)Cc2ncc(C(F)(F)F)cc2C(F)(F)F)c2ccc(F)cc2)nn1 yielded an IC50 (second compound 0.0316 µM) of 13.6 nM, an IC50 (second compound 0.1 µM) of 12.5 nM and an IC50 (second compound 0.316 µM) of 14.5 nM. It also gave an IC50 (second compound 1 µM) of 10.4 nM, an IC50 (second compound 3.16 µM) of 10.5 nM and an IC50 (second compound 10 µM) of less than 9.49 nM. For the same compound, the viability, T/C (second compound 0.0316 µM, first compound 0.00949 µM) was 63.4%, the viability, T/C (second compound 0.0316 µM, first compound 0.03 µM) was 20.8% and the viability, T/C (second compound 0.0316 µM, first compound 0.0949 µM) was 12.1%. For the same compound, the viability, T/C (second compound 0.0316 µM, first compound 0.3 µM) was 12.3%, the viability, T/C (second compound 0.0316 µM, first compound 0.949 µM) was 12.3% and the viability, T/C (second compound 0.0316 µM, first compound 3 µM) was 11.4%. It also gave a viability, T/C (second compound 0.1 µM, first compound 0.00949 µM) of 59.2%, a viability, T/C (second compound 0.1 µM, first compound 0.03 µM) of 22.4% and a viability, T/C (second compound 0.1 µM, first compound 0.0949 µM) of 12.4%. The viability, T/C (second compound 0.1 µM, first compound 0.3 µM) was 11.6%, the viability, T/C (second compound 0.1 µM, first compound 0.949 µM) was 13.2% and the viability, T/C (second compound 0.1 µM, first compound 3 µM) was 17.6%. It also gave a viability, T/C (second compound 0.316 µM, first compound 0.00949 µM) of 67.8%, a viability, T/C (second compound 0.316 µM, first compound 0.03 µM) of 19.9% and a viability, T/C (second compound 0.316 µM, first compound 0.0949 µM) of 11.4%. For the same compound, the viability, T/C (second compound 0.316 µM, first compound 0.3 µM) was 13.2%, the viability, T/C (second compound 0.316 µM, first compound 0.949 µM) was 12.4% and the viability, T/C (second compound 0.316 µM, first compound 3 µM) was 12.9%. For the same compound, the viability, T/C (second compound 1 µM, first compound 0.00949 µM) was 53.1%, the viability, T/C (second compound 1 µM, first compound 0.03 µM) was 16% and the viability, T/C (second compound 1 µM, first compound 0.0949 µM) was 14%. For the same compound, the viability, T/C (second compound 1 µM, first compound 0.3 µM) was 10.8%, the viability, T/C (second compound 1 µM, first compound 0.949 µM) was 12.7% and the viability, T/C (second compound 1 µM, first compound 3 µM) was 13.6%. For the same compound, the viability, T/C (second compound 3.16 µM, first compound 0.00949 µM) was 53.4%, the viability, T/C (second compound 3.16 µM, first compound 0.03 µM) was 16.5% and the viability, T/C (second compound 3.16 µM, first compound 0.0949 µM) was 14.4%. It also gave a viability, T/C (second compound 3.16 µM, first compound 0.3 µM) of 12.5%, a viability, T/C (second compound 3.16 µM, first compound 0.949 µM) of 12.9% and a viability, T/C (second compound 3.16 µM, first compound 3 µM) of 14%. It also gave a viability, T/C (second compound 10 µM, first compound 0.00949 µM) of 45.5%, a viability, T/C (second compound 10 µM, first compound 0.03 µM) of 16.9% and a viability, T/C (second compound 10 µM, first compound 0.0949 µM) of 15.8%. It also gave a viability, T/C (second compound 10 µM, first compound 0.3 µM) of 13.3%, a viability, T/C (second compound 10 µM, first compound 0.949 µM) of 14.4% and a viability, T/C (second compound 10 µM, first compound 3 µM) of 17.6%.
In the case of COc1cc(C2c3cc4c(cc3C(OC3OC5COC(C)OC5C(O)C3O)C3COC(=O)C23)OCO4)cc(OC)c1O (stereo not drawn) + Nc1ccc(C#CCN(C(=O)Cc2ncc(C(F)(F)F)cc2C(F)(F)F)c2ccc(F)cc2)nn1, the IC50 (second compound 0.0316 µM) is reported as 597 nM, the IC50 (second compound 0.1 µM) is reported as 789 nM and the IC50 (second compound 0.316 µM) is reported as 582 nM. It also gave an IC50 (second compound 1 µM) of 626 nM, an IC50 (second compound 3.16 µM) of 625 nM and an IC50 (second compound 10 µM) of 633 nM. It also gave a viability, T/C [1] of 87.2%, a viability, T/C [2] of 95.2% and a viability, T/C [3] of 61.4%. The viability, T/C [4] was 40.7%, the viability, T/C [5] was 24.9% and the viability, T/C [6] was 22.9%. For the same compound, the viability, T/C [7] was 89.5%, the viability, T/C [8] was 87.3% and the viability, T/C [9] was 65.9%. The viability, T/C [10] was 48.2%, the viability, T/C [11] was 27.7% and the viability, T/C [12] was 28.5%. It also gave a viability, T/C [13] of 97.1%, a viability, T/C [14] of 97.8% and a viability, T/C [15] of 66.3%. The viability, T/C [16] was 35.5%, the viability, T/C [17] was 25% and the viability, T/C [18] was 21.4%. It also gave a viability, T/C [19] of 97.5%, a viability, T/C [20] of 79.3% and a viability, T/C [21] of 67.6%. It also gave a viability, T/C [22] of 39.4%, a viability, T/C [23] of 24.6% and a viability, T/C [24] of 22.2%. For the same compound, the viability, T/C [25] was 100%, the viability, T/C [26] was 88.5% and the viability, T/C [27] was 64.2%. For the same compound, the viability, T/C [28] was 40.7%, the viability, T/C [29] was 27.1% and the viability, T/C [30] was 25%. It also gave a viability, T/C [31] of 86.8%, a viability, T/C [32] of 78.4% and a viability, T/C [33] of 58.8%. It also gave a viability, T/C [34] of 47.4%, a viability, T/C [35] of 25% and a viability, T/C [36] of 29%.
For COc1cccc2c1C(=O)c1c(O)c3c(c(O)c1C2=O)CC(O)(C(=O)CO)CC3OC1CC(N)C(O)C(C)O1 (stereo not drawn) + Nc1ccc(C#CCN(C(=O)Cc2ncc(C(F)(F)F)cc2C(F)(F)F)c2ccc(F)cc2)nn1, the IC50 (second compound 0.0316 µM) was 134 nM, the IC50 (second compound 0.1 µM) was 103 nM and the IC50 (second compound 0.316 µM) was 68.8 nM. The IC50 (second compound 1 µM) was 80.6 nM, the IC50 (second compound 3.16 µM) was 57.4 nM and the IC50 (second compound 10 µM) was 62.1 nM. It also gave a viability, T/C [1] of 67.5%, a viability, T/C [2] of 57.8% and a viability, T/C [3] of 26.7%. It also gave a viability, T/C [4] of 5.37%, a viability, T/C [5] of 0.23% and a viability, T/C [6] of 0.7%. The viability, T/C [7] was 80.5%, the viability, T/C [8] was 48.3% and the viability, T/C [9] was 29.4%. For the same compound, the viability, T/C [10] was 5.02%, the viability, T/C [11] was 0.21% and the viability, T/C [12] was 0.47%. For the same compound, the viability, T/C [13] was 67.8%, the viability, T/C [14] was 40% and the viability, T/C [15] was 25%. For the same compound, the viability, T/C [16] was 9.55%, the viability, T/C [17] was 0.15% and the viability, T/C [18] was 0.48%. For the same compound, the viability, T/C [19] was 83.7%, the viability, T/C [20] was 36.7% and the viability, T/C [21] was 29.5%. The viability, T/C [22] was 5.88%, the viability, T/C [23] was 0.44% and the viability, T/C [24] was 0.58%. The viability, T/C [25] was 64.5%, the viability, T/C [26] was 34.2% and the viability, T/C [27] was 24.8%. The viability, T/C [28] was 7.19%, the viability, T/C [29] was 0.42% and the viability, T/C [30] was 0.9%. It also gave a viability, T/C [31] of 63.2%, a viability, T/C [32] of 38.7% and a viability, T/C [33] of 25.3%. It also gave a viability, T/C [34] of 5.04%, a viability, T/C [35] of 0.39% and a viability, T/C [36] of 1.33%.
